Assay results from US4988691A (priority 1989, dated 1991).
Entries after “also recorded” stand apart in the source; their conditions may differ. Structures can show the parent of a compound that is named as a salt. Where two headings read alike, the source gives them in different places.

How the values were obtained:
[1] = target: T1, contracturing effect of acetylcholine (Cavia porcellus, UniProt H0W1Z3); assay: anticholinergic activity in vitro (contracturing effect of acetylcholine on isolated guinea pig small intestine); set-up: species or system Guinea pigs
T1 construct: Segments measuring 5-6 cm were drawn form the end portion of the small intestine; from tissue; host or cells: guinea pig terminal small intestine (ileum)
T1 sequence (H0W1Z3 1-590): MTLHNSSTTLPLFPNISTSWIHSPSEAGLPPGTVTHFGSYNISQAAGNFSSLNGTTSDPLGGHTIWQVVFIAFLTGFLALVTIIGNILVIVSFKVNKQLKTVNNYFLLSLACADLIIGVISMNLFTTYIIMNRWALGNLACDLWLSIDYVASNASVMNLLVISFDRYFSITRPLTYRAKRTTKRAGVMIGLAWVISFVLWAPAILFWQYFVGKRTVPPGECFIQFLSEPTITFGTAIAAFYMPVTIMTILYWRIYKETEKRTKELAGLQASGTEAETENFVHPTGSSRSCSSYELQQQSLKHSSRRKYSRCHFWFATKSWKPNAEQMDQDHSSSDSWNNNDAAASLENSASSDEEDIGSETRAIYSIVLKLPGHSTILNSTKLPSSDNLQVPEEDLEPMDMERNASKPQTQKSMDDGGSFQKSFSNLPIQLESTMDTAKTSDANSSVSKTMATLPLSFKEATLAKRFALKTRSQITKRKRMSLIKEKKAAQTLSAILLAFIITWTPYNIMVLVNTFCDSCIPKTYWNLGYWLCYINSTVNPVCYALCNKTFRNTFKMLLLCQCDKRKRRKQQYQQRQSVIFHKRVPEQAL

[2] = target: T2, contracturing effect of histamine (Cavia porcellus, UniProt P31389); assay: antihistaminic activity in vitro (contracturing effect of histamine on isolated guinea pig small intestine); set-up: species or system Guinea pigs
T2 construct: Segments measuring 5-6 cm were drawn form the end portion of the small intestine; from tissue; host or cells: guinea pig terminal small intestine (ileum)
T2 sequence (P31389 whole entry): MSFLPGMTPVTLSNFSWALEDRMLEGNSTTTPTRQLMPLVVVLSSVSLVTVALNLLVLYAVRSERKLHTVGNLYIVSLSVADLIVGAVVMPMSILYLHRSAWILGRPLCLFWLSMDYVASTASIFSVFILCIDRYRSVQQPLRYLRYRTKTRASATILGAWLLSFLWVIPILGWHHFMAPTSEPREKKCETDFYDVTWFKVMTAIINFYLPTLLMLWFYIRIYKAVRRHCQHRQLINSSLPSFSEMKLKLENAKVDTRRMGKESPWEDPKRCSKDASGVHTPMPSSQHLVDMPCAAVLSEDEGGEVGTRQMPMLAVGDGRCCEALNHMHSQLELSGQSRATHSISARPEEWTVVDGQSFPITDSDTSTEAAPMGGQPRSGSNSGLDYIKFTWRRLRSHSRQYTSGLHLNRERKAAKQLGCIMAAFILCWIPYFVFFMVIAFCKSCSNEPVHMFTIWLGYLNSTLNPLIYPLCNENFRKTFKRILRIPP

rat sciatic nerve = assay: local anaesthetic activity on sciatic nerve preparation in vitro; conditions: for IC50: read-out: ED50 (C.L. 95%)
guinea pig back = assay: local anaesthetic activity in the test of the guinea pig back in vivo (intracutaneous infiltration); conditions: for ED50 (C.L. 95%), 5 min. / ED50 (C.L. 95%), 15 min. / ED50 (C.L. 95%), 30 min.: guinea pig back, cutaneous anaesthesia, 0.25 ml; for ED50 (C.L. 95%), 5 min.: 5 min. after administration; for ED50 (C.L. 95%), 15 min.: 15 min. after administration; for ED50 (C.L. 95%), 30 min.: 30 min. after administration
Method: (b) Evaluation of the local anaesthetic activity in the test of the guinea pig back in vivo in comparison with lidocaine.
The local anaesthetic activity was evaluated by the method of intracutaneous infiltration in the guinea pig back as described by Bulbring E. and Wajda I. [(J. Pharmacol. Exp. Ther. 85, 78, (1945)].
Female guinea pigs weighin 400-500 g were treated intracutaneously in 4 points of their back.
At 5 minutes intervals, it was determined the reactivity of the animal to pain in each area by considering the number of responses to 6 pain stimulations.
Compounds of formula I, compound R and lidocaine, dissolved at different concentration in physiological solution adjusting the pH at 7 by addition of NaHCO3 were injected under the skin at the constant volume of 0.25 ml.
The distribution of the treatments in the 4 areas of the back was carried out according to the scheme of the Latin square. Experiments were carried out in blind.
As an example, the ED50 values for compound No. 8, compound R and lidocaine determined at 5, 15 and 30 minutes after the administration are reported in table 4.

[3] = system: receptors for benzodiazepins; assay: displacement of 3H-flunitrazepam from benzodiazepine receptors, rat cerebral cortex membranes; format: binding; conditions: 3H-flunitrazepam 1nM
Ca^++ receptors = assay: displacement of 3H-nitrendipine from Ca++ receptors, rat brain membranes; format: binding; conditions: 3H-nitrendipine 1nM
5-HT1 receptors = assay: affinity for 5-HT1 receptors (3H serotonin binding), rat cortex membranes; conditions: 3H-serotonin 5 nM; rat frontal cortex membranes
5-HT2 receptors = 5-HT2 receptors (Rattus norvegicus, UniProt P14842); assay: affinity for 5-HT2 receptors (3H-spiroperidol binding), rat cortex membranes; conditions: rat frontal cortex membranes
Chain of 5-HT2 receptors (P14842 whole entry): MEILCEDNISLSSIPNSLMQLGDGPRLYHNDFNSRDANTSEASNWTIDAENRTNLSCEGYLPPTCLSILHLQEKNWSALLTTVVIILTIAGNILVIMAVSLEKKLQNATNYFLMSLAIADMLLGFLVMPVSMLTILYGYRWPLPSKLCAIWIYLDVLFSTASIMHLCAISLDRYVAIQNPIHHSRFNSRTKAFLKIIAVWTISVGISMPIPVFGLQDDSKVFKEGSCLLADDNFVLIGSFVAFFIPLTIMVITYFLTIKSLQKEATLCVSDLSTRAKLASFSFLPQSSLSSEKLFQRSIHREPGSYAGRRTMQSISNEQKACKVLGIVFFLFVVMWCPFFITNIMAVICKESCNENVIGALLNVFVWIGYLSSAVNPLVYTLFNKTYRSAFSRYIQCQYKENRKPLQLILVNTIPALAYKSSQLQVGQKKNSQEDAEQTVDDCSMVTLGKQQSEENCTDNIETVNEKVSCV

5-HT3 receptors [4] = target: T3, 5-HT3 receptors (Rattus norvegicus, UniProt P35563); assay: anti-5-HT3 activity in vivo, inhibition of the Bezold-Jarisch effect; conditions: intravenous, read-out: ED50 to the antagonism of the heart rate fall (Bezold-Jarisch effect)
T3 construct: Male albino rats weighing 300-400 g anaesthetized with urethan; from tissue; host or cells: whole anaesthetized rat (endogenous receptor on cardiac vagal afferents)
T3 sequence (P35563 24-483): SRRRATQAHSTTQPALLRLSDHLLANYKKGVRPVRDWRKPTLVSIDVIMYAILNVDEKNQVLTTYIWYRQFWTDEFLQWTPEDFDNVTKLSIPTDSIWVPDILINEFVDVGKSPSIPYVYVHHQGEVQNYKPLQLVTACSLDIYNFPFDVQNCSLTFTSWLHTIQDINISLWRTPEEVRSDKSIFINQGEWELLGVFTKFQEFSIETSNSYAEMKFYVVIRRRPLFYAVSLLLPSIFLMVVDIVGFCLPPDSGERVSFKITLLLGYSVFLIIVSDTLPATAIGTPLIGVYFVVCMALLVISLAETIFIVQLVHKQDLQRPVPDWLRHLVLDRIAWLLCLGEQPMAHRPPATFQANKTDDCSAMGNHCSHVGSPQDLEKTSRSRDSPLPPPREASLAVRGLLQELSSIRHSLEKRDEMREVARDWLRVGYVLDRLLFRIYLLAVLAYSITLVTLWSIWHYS
Source text: (a) Evaluation of the anti-5-HT3 activity in vivo by the method of the inhibition of the Bezold-Jarisch effect. The followed method was described by Fozard J. R. et al. [Nature, 316, 126-131, (1985)]. Male albino rats weighing 300-400 g anaesthetized with urethan (1.25-1.5 g/kg i.p.) were used. A tracheal cannula to allow respiration, one little catheter implanted into the jugular vein for administering serotonin and another into the right femoral vein for the intravenous administration of the compounds of formula I and of compound R were used. The bolus injection into the jugular vein of a serotonin solution caused an abrupt reduction of the heart rate quantified as 100% of the effect. The evaluation of the anti-5-HT3 activity was performed by calculating ED50 values (μg/kg) to the antagonism of the heart rate fall.

[5] = system: reperfusion induced arrythmias in rat; assay: inhibition of reperfusion induced arrythmias in rat; format: in vivo; conditions: for % VF / % dead: 10 treated rats; for incidence dead / incidence VF: number of 10 treated rats
[6] = system: norepinephrine induced arrythmias in rat; assay: inhibition of norepinephrine induced arrythmias in rat; format: in vivo; conditions: for ED50: Rattus norvegicus, 50% reduction of arrythmia duration
Method: Male rats, weighing 300-400 g, narcotized with urethan (1.5 g/kg, i.p.) were used; one little probe was implanted into the jugular vein and another into the femoral vein for administering norepinephrine and the test substance respectively. The EGC was recorded in II derivation and from it the instantaneous heart rate was derived. Furthermore, the EGC wave was monitored on oscilloscope and made audible by mean of a loudspeaker. Norepinephrine (75 μg/kg/min. for 15 seconds, 7-8 μg/animal) was administered by means of a Braun perfusion apparatus. The dose of administered norepinephrine was established in preliminary tests so as to cause an arrythmia of a duration equal to or higher than 10 seconds. The arising time of the heart arrythmia starting from the beginning of the norepinephrine perfusion and the duration of the arrythmic phase were recorded. Tests of arrythmia duration for each animal were performed; thereafter the compounds of formula I and the compound R were administered intravenously or per os 2 minutes or 1 hour respectively before a fourth norepinephrine infusion. The activity of test compounds was evaluated as increasing percentage in the time of the arising of arrythmia as well as of the inhibition (duration of the arrythmic phase). For each dose at least 5 tests were performed. In table 9 we report as an example the ED50 values defined as 50% reduction of the duration of arrythmias after the administration of both compound No. 8 and compound R either intravenously (i.v.) or per os (p.o.).

5-HT3 receptors [7] = target: T4, 5-HT3 receptors (Oryctolagus cuniculus, UniProt A0A5F9C9J3); assay: anti-5-HT3 activity in vitro on the isolated vagus nerve of rabbit
T4 construct: from tissue; host or cells: isolated rabbit vagus nerve
T4 sequence (A0A5F9C9J3 1-494): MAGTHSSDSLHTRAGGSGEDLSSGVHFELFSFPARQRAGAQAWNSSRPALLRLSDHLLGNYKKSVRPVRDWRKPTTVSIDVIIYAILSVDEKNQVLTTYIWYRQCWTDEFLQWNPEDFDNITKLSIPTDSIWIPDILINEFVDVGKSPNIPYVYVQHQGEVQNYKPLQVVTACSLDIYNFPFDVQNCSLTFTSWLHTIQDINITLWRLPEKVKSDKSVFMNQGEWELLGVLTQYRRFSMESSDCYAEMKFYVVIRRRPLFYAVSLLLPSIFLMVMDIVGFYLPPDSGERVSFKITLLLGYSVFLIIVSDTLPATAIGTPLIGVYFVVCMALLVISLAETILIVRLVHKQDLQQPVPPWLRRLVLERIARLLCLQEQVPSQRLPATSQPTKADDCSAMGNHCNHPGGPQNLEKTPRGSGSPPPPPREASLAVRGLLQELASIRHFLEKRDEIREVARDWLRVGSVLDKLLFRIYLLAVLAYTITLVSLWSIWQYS
Method: (b) Evaluation of the anti-5-HT3 activity in vitro on the vagus nerve of rabbit. Male albino New Zeland rabbits weighing about 3 kg were sacrified by an air injection in the edge auriculaers vein. The two vagus nerves, drawn as soon as possible, were placed in a bath of Locke solution having the following composition: 154 mM NaCl; 5.5 mM KCl; 2.2 mM CaCl2; 5 mM glucose; 8 mM TRIS, the pH being adjusted at 7.6 by addition of HCl. Nerves were stripped of their epineurium and transferred into a device described by Kosterlitz H. W. et al., [J. Physiol., 183, IP-3P, (1966)] consisting of four compartments separated by means of 3 elastic membranes having a little hole through which the nerve passes. The glucose concentration perfusing a portion of the nerve was 315 mM. The overmaximal electric stimulation by a single shock at 10 seconds intervals elicited a potential visualized on a storage oscilloscope. In the potential the complexes due to the excitation of fibers A, B and C were distinguished. A serotonin solution applied to the nerve causes the dose-dependent fall of the potential for fibers C only. The non variation of the A-B complex when applying serotonin and the test compounds of formula I indicates on one hand the specific action of the substances for receptors relating to fibers C only (5-HT3 receptors) and on the other hand the absence of local-anaesthetic activity. Tests were performed at room temperature (24°-25° C.). The optimum maximum reduction of the potential of fibers C by serotonin resulted to be 44%. This reduction was adopted as maximum effect (100%). For each nerve a dose-response curve was constructed with cumulative doses of serotonin. After having washed serotonin and recovered the initial potential, the nerve was balanced with a fixed concentration of the compound of formula I for 60 minutes and successively the dose-response curve to serotonin was repeated, the compound of formula I being always present in the same concentration. After having applied a serotonin concentration sufficient to produce the highest effect, the preparation was washed and thereafter it was balanced again for 60 minutes with a solution of the same compound of formula I having a higher concentration. The procedure was then repeated. For each dose of the compound of formula I the test was repeated more than 5 times. The negative […] logarithm of the molar concentration of the compound of formula I which gives a 50% reduction of the effect of the agonist substance (pA2) was calculated. In table 7, the pA2 values of some compounds of formula I are reported.

[8] = 3 mg/kg per os, *** significance < 0.001
[9] = iv, 2 min, i.v., 2 minutes before norepinephrine, read-out: ED50 i.v.
[10] = po, 1 hour before norepinephrine, read-out: ED50 p.o.

| Compound | Kb [1] | ED50 (C.L. 95%), 5 min. (guinea pig back) | ED50 (C.L. 95%), 15 min. (guinea pig back) | ED50 (C.L. 95%), 30 min. (guinea pig back) | Displacement activity at benzodiazepine receptors [3] | Displacement activity at receptors of Ca++ (Ca^++ receptors) | Affinity (IC50) to 5-HT1 receptors (5-HT1 receptors) | % VF ([5]; 3 mg/kg per os) | % dead ([5]; 3 mg/kg per os) | incidence dead ([5]; 3 mg/kg per os) | incidence VF [5, 8] | ED50 [6, 9] | ED50 [6, 10] | other results |
| --- | --- | --- | --- | --- | --- | --- | --- | --- | --- | --- | --- | --- | --- | --- |
| CN1[C@@H]2CC[C@H]1C[C@@H](OC(=O)c1c[nH]c3ccccc13)C2 [R, 3-endo-tropanyl indol-3-yl carboxylate, reference compound] | 15.8 µM | 2.5 (2.1-2.9) mM | 3.3 (3.0-3.7) mM | 5.7 (5.2-6.2) mM | 1,000 | inactive | inactive | 70% | 30% | 3 | 7 | 0.65 mg/kg | 4 mg/kg | anticholinergic activity (in words) [1]: practically free of anticholinergic and antihistaminic activity; Kb [2]: 3.16 µM; antihistaminic activity (in words) [2]: practically free of anticholinergic and antihistaminic activity; local anaesthetic activity (in words) (rat sciatic nerve): good activity; also recorded: comparable with that of lidocaine; IC50 (rat sciatic nerve; rat sciatic nerve in vitro, 8 minutes contact): 1300 µM; IC50 (5-HT2 receptors; 3H-spiroperidol 0.25 nM): 25 µM; ED50 (5-HT3 receptors [4]): 0.006 mg/kg |
| Cc1cc(C(=O)O[C@H]2C[C@H]3CC[C@@H](C2)N3C)no1 [Compound 8, 5-methylisoxazole-3-carboxylic acid 3-(endo-8-methyl-8-azabicyclo[3,2,1]octyl) ester hydrochloride] | 6.31 µM | 28.4 (25.5-31.8) mM | 32.8 (30.5-35.2) mM | 41.2 (38.8-43.7) mM | inactive | inactive | inactive | 0% | 0% | 0 | 0 | 0.125 mg/kg | 0.35 mg/kg | Kb ([2]; vs histamine, guinea pig small intestine, 37° C., test compounds 10^-5 M, read-out: Antihistaminic activity (pA2) (converted)): 6.31 µM; IC50 (rat sciatic nerve; rat, sciatic nerve, 8 min): > 15000 µM; local anaesthetic activity, guinea pig back (in words) (guinea pig back; guinea pig, in vivo): undoubtedly less active as local anaesthetic than compound R and lidocaine; Affinity (IC50) to 5-HT2 receptors (5-HT2 receptors; 3H-spiroperidol […]): inactive; Kb (5-HT3 receptors [7]): 0.000631 µM; % VF ([5]; 1 mg/kg per os): 20%; % dead ([5]; 1 mg/kg per os): 10%; incidence dead ([5]; 1 mg/kg per os): 1; incidence VF ([5]; 1 mg/kg per os, ** significance < 0.02): 2; antiarrythmic activity, reperfusion induced arrythmias (in words) ([5]; per os): active in the test of reperfusion-induced arrythmias; activity in norepinephrine-induced arrythmia (in words) ([6]; intravenously or per os): much more active than the compound R |
